Columns and labels:
Type in all cases: cell-free
[1] = biological target: T1, Phosphatidylinositol 5-phosphate 4-kinase type-2 alpha (Homo sapiens) (UniProt P48426); test: Inhibition of human PIP4K2A in HL-60 cells lysate assessed as reduction of labeling of acyl-phosphate ATP probe at 100 nM
T1 sequence (whole entry): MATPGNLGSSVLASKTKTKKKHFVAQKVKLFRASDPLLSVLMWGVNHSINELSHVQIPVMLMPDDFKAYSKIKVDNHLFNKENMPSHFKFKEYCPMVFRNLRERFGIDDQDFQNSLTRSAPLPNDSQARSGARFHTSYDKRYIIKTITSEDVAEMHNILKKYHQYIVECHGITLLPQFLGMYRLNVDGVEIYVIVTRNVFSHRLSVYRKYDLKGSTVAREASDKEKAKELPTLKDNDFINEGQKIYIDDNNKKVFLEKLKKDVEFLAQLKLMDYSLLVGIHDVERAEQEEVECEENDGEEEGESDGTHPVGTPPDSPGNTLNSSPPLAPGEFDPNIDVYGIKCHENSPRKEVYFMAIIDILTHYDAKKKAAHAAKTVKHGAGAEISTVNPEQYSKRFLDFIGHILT

[2] = biological target: T2, STE20-related kinase adapter protein alpha (Homo sapiens) (UniProt Q7RTN6); test: Inhibition of human STLK5 in HL-60 cells lysate assessed as reduction of labeling of acyl-phosphate ATP probe at 100 nM
T2 sequence (whole entry): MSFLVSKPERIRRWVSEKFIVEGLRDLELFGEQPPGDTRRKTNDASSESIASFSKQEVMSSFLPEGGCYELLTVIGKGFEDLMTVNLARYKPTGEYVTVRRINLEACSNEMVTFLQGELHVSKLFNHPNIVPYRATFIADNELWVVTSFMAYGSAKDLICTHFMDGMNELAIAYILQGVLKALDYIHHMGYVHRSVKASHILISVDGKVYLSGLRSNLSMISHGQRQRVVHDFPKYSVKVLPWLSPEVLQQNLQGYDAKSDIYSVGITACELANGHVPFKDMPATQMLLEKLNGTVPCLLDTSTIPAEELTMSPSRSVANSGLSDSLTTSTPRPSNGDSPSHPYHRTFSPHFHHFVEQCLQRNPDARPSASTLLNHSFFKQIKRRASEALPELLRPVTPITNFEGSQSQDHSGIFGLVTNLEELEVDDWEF

[3] = biological target: Mitogen-activated protein kinase kinase kinase kinase 1 (Homo sapiens) (UniProt Q92918); test: Inhibition of human HPK1 in HL-60 cells lysate assessed as reduction of labeling of acyl-phosphate ATP probe at 100 nM
[4] = biological target: T3, Mitogen-activated protein kinase kinase kinase 5 (Homo sapiens) (UniProt Q99683); test: Inhibition of human MAP3K5 in HL-60 cells lysate assessed as reduction of labeling of acyl-phosphate ATP probe at 100 nM
T3 sequence (whole entry): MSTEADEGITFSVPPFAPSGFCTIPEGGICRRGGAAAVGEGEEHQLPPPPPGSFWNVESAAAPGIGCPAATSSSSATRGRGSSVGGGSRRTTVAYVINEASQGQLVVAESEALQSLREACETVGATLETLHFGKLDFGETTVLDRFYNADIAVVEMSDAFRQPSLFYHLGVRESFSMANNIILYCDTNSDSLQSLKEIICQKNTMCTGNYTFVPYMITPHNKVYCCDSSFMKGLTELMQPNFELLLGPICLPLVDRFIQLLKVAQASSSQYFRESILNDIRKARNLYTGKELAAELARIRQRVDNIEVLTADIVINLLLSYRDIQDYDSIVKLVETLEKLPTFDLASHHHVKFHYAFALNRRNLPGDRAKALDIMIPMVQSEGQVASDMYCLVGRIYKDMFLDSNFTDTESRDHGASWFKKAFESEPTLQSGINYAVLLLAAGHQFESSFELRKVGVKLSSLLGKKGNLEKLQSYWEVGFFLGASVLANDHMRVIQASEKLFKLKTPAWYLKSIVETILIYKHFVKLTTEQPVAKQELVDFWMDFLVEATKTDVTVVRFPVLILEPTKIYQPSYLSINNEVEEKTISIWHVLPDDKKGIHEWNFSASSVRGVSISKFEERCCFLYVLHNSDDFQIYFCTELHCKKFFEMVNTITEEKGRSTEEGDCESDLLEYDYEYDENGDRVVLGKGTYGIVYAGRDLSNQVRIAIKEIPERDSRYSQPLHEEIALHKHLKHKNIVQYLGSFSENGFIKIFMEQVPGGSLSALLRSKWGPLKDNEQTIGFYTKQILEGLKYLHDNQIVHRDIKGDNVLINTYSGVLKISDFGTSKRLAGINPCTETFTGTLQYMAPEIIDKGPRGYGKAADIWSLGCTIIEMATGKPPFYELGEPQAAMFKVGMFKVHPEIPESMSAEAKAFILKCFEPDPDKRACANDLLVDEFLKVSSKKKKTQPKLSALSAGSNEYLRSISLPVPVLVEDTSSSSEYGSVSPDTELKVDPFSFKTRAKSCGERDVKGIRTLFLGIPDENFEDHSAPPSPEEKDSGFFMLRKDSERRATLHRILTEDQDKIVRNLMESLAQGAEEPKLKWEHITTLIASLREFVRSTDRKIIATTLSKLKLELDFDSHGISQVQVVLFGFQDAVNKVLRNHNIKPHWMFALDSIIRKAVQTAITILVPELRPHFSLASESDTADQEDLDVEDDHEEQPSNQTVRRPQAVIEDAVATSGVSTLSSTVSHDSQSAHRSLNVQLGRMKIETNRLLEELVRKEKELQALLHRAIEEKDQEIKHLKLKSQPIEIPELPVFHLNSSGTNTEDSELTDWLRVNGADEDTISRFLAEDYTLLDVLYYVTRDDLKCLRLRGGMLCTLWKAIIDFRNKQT

[5] = biological target: Serine/threonine-protein kinase SMG1 (Homo sapiens) (UniProt Q96Q15); test: Inhibition of human SMG1 in HL-60 cells lysate assessed as reduction of labeling of acyl-phosphate ATP probe at 100 nM
[6] = biological target: Interferon-induced, double-stranded RNA-activated protein kinase (Homo sapiens) (UniProt P19525); test: Inhibition of human PKR in HL-60 cells lysate assessed as reduction of labeling of acyl-phosphate ATP probe at 100 nM
[7] = biological target: Phosphatidylinositol 4,5-bisphosphate 3-kinase catalytic subunit gamma isoform (Homo sapiens) (UniProt P48736); test: Inhibition of human PIK3CG in HL-60 cells lysate assessed as reduction of labeling of acyl-phosphate ATP probe at 100 nM
[8] = biological target: Tyrosine-protein kinase SYK (Homo sapiens) (UniProt P43405); test: Inhibition of human SYK in HL-60 cells lysate assessed as reduction of labeling of acyl-phosphate ATP probe at 100 nM
[9] = biological target: Mitogen-activated protein kinase kinase kinase 20 (Homo sapiens) (UniProt Q9NYL2); test: Inhibition of human ZAK in HL-60 cells lysate assessed as reduction of labeling of acyl-phosphate ATP probe at 100 nM
[10] = biological target: Leucine-rich repeat serine/threonine-protein kinase 2 (Homo sapiens) (UniProt Q5S007); test: Inhibition of human LRRK2 in HL-60 cells lysate assessed as reduction of labeling of acyl-phosphate ATP probe at 100 nM

Interferon-induced, double-stranded RNA-activated protein kinase (Homo sapiens), sequence (P19525 whole entry, canonical isoform): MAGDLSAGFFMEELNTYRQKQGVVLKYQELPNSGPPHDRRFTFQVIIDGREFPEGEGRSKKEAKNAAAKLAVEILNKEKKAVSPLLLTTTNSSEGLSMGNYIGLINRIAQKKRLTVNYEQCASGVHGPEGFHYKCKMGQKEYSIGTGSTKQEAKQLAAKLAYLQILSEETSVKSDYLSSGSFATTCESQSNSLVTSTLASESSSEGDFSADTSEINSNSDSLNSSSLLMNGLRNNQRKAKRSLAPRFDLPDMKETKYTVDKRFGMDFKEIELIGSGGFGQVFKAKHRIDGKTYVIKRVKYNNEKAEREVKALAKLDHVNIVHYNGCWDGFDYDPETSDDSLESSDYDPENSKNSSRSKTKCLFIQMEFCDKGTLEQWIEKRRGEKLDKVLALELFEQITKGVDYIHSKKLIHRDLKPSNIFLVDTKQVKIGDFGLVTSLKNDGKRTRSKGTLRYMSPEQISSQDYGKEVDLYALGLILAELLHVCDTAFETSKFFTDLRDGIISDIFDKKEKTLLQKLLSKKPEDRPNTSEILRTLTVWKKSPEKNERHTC
Mitogen-activated protein kinase kinase kinase kinase 1 (Homo sapiens), sequence (Q92918 whole entry, looked up): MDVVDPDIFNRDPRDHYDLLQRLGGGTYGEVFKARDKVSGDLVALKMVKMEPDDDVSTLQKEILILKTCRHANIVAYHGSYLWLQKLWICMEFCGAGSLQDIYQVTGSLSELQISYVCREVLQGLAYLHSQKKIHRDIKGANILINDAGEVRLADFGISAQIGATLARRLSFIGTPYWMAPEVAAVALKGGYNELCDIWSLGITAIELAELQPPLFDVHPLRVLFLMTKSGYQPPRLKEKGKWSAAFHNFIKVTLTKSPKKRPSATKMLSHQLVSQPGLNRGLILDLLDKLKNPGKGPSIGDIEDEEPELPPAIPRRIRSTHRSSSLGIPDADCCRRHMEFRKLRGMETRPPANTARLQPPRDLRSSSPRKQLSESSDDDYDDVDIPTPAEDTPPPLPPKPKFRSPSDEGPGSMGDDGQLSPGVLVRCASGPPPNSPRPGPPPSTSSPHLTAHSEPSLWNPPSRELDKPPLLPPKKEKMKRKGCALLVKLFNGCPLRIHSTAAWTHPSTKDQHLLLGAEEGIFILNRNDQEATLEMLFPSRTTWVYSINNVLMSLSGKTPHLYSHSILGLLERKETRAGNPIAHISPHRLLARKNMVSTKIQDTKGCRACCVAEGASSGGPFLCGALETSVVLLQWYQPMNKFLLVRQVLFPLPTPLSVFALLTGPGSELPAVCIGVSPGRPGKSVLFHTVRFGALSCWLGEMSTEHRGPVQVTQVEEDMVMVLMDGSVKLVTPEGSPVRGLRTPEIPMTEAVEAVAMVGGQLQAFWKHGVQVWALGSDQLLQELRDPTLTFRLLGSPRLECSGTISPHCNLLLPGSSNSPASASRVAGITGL
Serine/threonine-protein kinase SMG1 (Homo sapiens), sequence (Q96Q15 whole entry): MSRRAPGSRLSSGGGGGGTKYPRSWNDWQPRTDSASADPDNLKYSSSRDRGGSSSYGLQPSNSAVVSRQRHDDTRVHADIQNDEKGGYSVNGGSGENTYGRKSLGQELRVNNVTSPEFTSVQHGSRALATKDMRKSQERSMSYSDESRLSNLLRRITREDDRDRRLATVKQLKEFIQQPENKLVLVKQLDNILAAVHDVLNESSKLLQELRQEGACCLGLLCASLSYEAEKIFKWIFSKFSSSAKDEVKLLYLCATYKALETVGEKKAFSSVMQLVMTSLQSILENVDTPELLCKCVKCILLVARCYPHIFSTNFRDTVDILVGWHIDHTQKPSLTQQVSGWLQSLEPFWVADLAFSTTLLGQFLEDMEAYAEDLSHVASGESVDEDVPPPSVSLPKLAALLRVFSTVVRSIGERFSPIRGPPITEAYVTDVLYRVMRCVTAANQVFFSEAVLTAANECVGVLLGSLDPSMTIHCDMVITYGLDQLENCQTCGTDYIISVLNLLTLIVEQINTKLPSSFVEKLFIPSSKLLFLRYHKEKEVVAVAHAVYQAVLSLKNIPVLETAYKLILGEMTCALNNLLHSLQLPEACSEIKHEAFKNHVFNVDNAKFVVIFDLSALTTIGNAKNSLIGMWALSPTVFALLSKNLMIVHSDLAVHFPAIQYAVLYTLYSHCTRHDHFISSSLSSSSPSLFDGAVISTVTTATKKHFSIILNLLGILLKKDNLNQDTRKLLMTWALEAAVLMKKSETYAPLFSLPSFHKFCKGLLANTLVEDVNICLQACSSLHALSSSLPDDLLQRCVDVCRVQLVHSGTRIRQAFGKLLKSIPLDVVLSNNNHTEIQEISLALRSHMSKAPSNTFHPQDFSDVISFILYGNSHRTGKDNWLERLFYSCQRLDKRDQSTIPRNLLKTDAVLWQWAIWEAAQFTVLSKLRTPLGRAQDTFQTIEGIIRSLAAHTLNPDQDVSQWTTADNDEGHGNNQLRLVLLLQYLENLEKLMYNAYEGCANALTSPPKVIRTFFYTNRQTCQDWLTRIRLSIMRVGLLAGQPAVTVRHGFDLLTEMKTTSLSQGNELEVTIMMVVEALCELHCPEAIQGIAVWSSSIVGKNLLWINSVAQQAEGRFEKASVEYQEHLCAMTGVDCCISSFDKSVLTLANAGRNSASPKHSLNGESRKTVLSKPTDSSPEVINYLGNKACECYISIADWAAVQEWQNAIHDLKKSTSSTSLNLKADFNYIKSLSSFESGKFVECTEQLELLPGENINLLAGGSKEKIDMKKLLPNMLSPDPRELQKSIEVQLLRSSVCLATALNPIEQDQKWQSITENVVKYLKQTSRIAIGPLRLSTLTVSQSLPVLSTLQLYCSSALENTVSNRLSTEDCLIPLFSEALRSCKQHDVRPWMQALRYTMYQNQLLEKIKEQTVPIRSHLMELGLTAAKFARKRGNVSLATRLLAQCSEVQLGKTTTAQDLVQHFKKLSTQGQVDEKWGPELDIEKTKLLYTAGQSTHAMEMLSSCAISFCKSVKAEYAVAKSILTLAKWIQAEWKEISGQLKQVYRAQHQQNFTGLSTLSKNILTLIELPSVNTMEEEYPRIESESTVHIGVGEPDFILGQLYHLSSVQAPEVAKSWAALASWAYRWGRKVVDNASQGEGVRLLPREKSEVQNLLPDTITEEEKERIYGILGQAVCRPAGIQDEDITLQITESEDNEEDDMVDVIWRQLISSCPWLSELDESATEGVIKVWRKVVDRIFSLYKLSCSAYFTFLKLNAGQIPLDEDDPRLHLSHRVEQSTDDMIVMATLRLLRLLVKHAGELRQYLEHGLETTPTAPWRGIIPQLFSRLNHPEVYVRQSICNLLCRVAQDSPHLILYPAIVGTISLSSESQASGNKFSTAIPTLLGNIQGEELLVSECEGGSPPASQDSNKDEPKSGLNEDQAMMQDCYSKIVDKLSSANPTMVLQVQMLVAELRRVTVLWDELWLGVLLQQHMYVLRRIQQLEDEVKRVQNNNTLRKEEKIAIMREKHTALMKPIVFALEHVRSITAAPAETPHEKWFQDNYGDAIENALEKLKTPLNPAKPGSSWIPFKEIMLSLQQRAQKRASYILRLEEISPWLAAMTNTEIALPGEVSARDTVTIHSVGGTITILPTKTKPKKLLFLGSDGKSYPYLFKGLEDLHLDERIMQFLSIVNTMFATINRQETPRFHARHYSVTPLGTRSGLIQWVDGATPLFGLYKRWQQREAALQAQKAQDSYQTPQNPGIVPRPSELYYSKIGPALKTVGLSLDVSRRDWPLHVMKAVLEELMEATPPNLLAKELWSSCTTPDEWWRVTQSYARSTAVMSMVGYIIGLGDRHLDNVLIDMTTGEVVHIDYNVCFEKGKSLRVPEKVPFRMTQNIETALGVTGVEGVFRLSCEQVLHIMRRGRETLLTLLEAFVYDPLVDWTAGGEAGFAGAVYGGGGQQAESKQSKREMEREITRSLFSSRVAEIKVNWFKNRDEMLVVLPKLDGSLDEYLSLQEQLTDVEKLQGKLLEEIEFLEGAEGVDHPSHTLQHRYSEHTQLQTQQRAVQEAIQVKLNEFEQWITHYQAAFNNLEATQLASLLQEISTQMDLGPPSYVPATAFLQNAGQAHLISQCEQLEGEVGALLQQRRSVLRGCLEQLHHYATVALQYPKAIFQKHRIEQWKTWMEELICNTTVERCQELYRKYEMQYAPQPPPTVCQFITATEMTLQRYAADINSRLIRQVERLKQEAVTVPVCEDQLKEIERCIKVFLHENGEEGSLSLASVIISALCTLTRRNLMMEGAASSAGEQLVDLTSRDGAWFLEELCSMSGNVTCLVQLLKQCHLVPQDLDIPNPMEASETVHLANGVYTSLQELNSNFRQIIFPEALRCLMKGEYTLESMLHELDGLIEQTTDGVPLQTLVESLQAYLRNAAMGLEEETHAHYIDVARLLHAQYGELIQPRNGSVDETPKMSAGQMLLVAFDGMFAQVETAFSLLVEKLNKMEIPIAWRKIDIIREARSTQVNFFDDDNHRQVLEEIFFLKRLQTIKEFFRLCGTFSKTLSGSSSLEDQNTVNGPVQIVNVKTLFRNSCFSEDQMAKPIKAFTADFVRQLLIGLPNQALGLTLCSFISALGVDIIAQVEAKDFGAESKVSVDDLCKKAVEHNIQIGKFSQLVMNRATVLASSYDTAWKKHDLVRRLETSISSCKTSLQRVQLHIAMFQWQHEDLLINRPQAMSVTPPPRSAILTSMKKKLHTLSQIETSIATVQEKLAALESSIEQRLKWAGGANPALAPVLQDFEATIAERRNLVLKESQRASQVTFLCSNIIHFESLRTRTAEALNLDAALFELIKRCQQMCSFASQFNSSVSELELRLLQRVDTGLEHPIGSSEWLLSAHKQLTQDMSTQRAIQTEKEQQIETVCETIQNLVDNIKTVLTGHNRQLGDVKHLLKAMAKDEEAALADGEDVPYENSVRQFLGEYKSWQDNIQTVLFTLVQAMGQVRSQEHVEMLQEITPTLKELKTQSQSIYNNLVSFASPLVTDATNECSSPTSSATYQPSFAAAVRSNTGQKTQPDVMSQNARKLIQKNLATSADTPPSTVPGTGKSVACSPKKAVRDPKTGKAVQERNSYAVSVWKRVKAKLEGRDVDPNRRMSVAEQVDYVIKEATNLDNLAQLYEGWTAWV

Row | inhibition [1] | inhibition [2] | inhibition [3] | inhibition [4] | inhibition [5] | inhibition [6] | inhibition [7] | inhibition [8] | inhibition [9] | inhibition [10] | Structure (SMILES)
1 | < 35% | < 35% | < 35% | < 35% | < 35% | < 35% | < 35% | < 35% | < 35% | < 35% | C[C@H]1COc2c(NCCCc3ccccn3)c(F)c(N)c3c(=O)c(C#N)cn1c23
2 | < 35% | < 35% | < 35% | < 35% | < 35% | < 35% | < 35% | < 35% | < 35% | < 35% | C[C@H]1COc2c(NCCCn3cccn3)c(F)c(N)c3c(=O)c(C#N)cn1c23
3 | < 35% | < 35% | < 35% | < 35% | < 35% | < 35% | < 35% | < 35% | < 35% | < 35% | C[C@H]1COc2c(NCCCc3ccccn3)c(F)c(N)c3c(=O)c(C(=O)O)cn1c23
4 | < 35% | < 35% | < 35% | < 35% | < 35% | < 35% | < 35% | < 35% | < 35% | < 35% | C[C@H]1COc2c(NCCCn3cccn3)c(F)c(N)c3c(=O)c(C(=O)O)cn1c23

Reference: ChEMBL document CHEMBL1938230, “6-Position optimization of tricyclic 4-quinolone-based inhibitors of glycogen synthase kinase-3β: discovery of nitrile derivatives with picomolar potency” (Bioorg Med Chem Lett, 2012)
